Data published in patent US10538442B2, “Water treatment” (priority 2015, dated 2020).

Legend:
Desulfovibrio vulgaris = assay: Log 10 reduction of viable count of anaerobic bacterium in dosed suspension (serial dilution into API RP 38 media vials); assay type: cell-based; details: for Log 10 Reduction Anaerobes: TDS 30,000 mg l^-1, 5 = complete kill; for effectiveness against anaerobes (in words): short contact times, summary of Table 1, combination compared with chlorine dioxide alone
Experimental: (§1) A suspension of Desulfovibrio vulgaris plus Enterobacter aerogenes bacteria containing from 1×10^5 to 1×10^6 cells/mL was prepared in sterile pH 8 phosphate buffer containing sodium chloride to give the desired total dissolved solids (TDS) concentration. Aliquots of this suspension were dosed with the indicated concentrations of the compounds (a) and (b) with the concentrations being measured as ppm by weight of the stated composition in the dosed suspension. The mixtures were allowed to stand at room temperature. At the designated contact times, each mixture was sampled to determine the total number of viable cells of both Desulfovibrio vulgaris and Enterobacter aerogenes by serial 10-fold dilution into API RP 38 media vials and anaerobic acid producing media vials, respectively. The vials were incubated at 37° C. for 72 hours. Results were recorded as log10 reduction in the viable count versus the control.
(§2) Aqueous media inoculated with anaerobe and aerobe culture and having a TDS of 30,000 mg l^−1 was treated with treatment agents comprising: (i) tri n-butyl n-tetradecyl phosphonium chloride (TTPC); (ii) chlorine dioxide; or (ill) a combination of TTPC and chlorine dioxide.
(§3) TTPC was used in the form of Bellacide 350, an aqueous composition of TTPC and water consisting of water and 50% by weight of TTPC available from BWA Water Additives.
(§4) Chlorine dioxide was used in the form of CDG Solution 3000 a 0.3% aqueous solution of chlorine dioxide available from CDG Environmental, LLC.
(§5) The efficacy of the treatment agents was evaluated by measuring the Log 10 Reduction of the anaerobic bacterium Desulfovibrio vulgaris and the facultative anaerobic bacterium Enterobacter aerogenes after contact times of 10 minutes, 30 minutes and 60 minutes as detailed in Table 1. For TTPC the stated ppm value relates to the amount of TTPC added (active). For the chlorine dioxide the stated ppm relates to the amount of free residual of chlorine dioxide.

Enterobacter aerogenes = assay: Log 10 reduction of viable count of facultative anaerobic bacterium in dosed suspension (serial dilution into anaerobic acid producing media vials); assay type: cell-based; details: for Log 10 Reduction Facultative Anaerobes: TDS 30,000 mg l^-1, 6 = complete kill; for effectiveness against aerobes (in words): short contact times, summary of Table 1, combination compared with chlorine dioxide alone
Experimental: as §1, §2, §3, §4, §5

[1] = contact time 10 minutes, chlorine dioxide 0.25 ppm free residual
[2] = contact time 10 minutes, chlorine dioxide 0.5 ppm free residual
[3] = contact time 30 minutes, chlorine dioxide 0.25 ppm free residual
[4] = contact time 30 minutes, chlorine dioxide 0.5 ppm free residual
[5] = contact time 60 minutes, chlorine dioxide 0.25 ppm free residual
[6] = contact time 60 minutes, chlorine dioxide 0.5 ppm free residual
[7] = contact time 10 minutes, TTPC 3.125 ppm active
[8] = contact time 10 minutes, TTPC 6.25 ppm active
[9] = contact time 30 minutes, TTPC 3.125 ppm active
[10] = contact time 30 minutes, TTPC 6.25 ppm active
[11] = contact time 60 minutes, TTPC 3.125 ppm active
[12] = contact time 60 minutes, TTPC 6.25 ppm active

## [O][Cl+][O-] [chlorine dioxide]
Desulfovibrio vulgaris; [1]
  Log 10 Reduction Anaerobes: 3
Desulfovibrio vulgaris; [2]
  Log 10 Reduction Anaerobes: 4
Desulfovibrio vulgaris; [3]
  Log 10 Reduction Anaerobes: 3
Desulfovibrio vulgaris; [4]
  Log 10 Reduction Anaerobes: 5
Desulfovibrio vulgaris; [5]
  Log 10 Reduction Anaerobes: 3
Desulfovibrio vulgaris; [6]
  Log 10 Reduction Anaerobes: 5
Desulfovibrio vulgaris
  effectiveness against anaerobes (in words): effective
Enterobacter aerogenes; [1]
  Log 10 Reduction Facultative Anaerobes: 3
Enterobacter aerogenes; [2]
  Log 10 Reduction Facultative Anaerobes: 6
Enterobacter aerogenes; [3]
  Log 10 Reduction Facultative Anaerobes: 3
Enterobacter aerogenes; [4]
  Log 10 Reduction Facultative Anaerobes: 6
Enterobacter aerogenes; [5]
  Log 10 Reduction Facultative Anaerobes: 3
Enterobacter aerogenes; [6]
  Log 10 Reduction Facultative Anaerobes: 6
Enterobacter aerogenes
  effectiveness against aerobes (in words): effective

## CCCCCCCCCCCCCC[P+](CCCC)(CCCC)CCCC.[Cl-] [TTPC, tri n-butyl n-tetradecyl phosphonium chloride]
Desulfovibrio vulgaris; [7]
  Log 10 Reduction Anaerobes: 0
Desulfovibrio vulgaris; [8]
  Log 10 Reduction Anaerobes: 0
Desulfovibrio vulgaris; [9]
  Log 10 Reduction Anaerobes: 0
Desulfovibrio vulgaris; [10]
  Log 10 Reduction Anaerobes: 2
Desulfovibrio vulgaris; [11]
  Log 10 Reduction Anaerobes: 0
Desulfovibrio vulgaris; [12]
  Log 10 Reduction Anaerobes: 5
Desulfovibrio vulgaris
  effectiveness against anaerobes (in words): ineffective
Enterobacter aerogenes; [7]
  Log 10 Reduction Facultative Anaerobes: 0
Enterobacter aerogenes; [8]
  Log 10 Reduction Facultative Anaerobes: 0
Enterobacter aerogenes; [9]
  Log 10 Reduction Facultative Anaerobes: 0
Enterobacter aerogenes; [10]
  Log 10 Reduction Facultative Anaerobes: 1
Enterobacter aerogenes; [11]
  Log 10 Reduction Facultative Anaerobes: 0
Enterobacter aerogenes; [12]
  Log 10 Reduction Facultative Anaerobes: 1
Enterobacter aerogenes
  effectiveness against aerobes (in words): ineffective
